Measured values taken from patent US12042523B2, “Compositions and methods for managing or improving bone disorders, joint disorders, cartilage disorders, or a combination thereof” (Unigen, Inc., priority 2014, dated 2024).

System: MIA-induced osteoarthritis in Sprague-Dawley rats
Test: Bone histomorphometry (Micro CT) in concurrent MIA-induced osteoarthritis model
Type: in vivo, rat
Description: Male Sprague-Dawley (SD) rats weighing 170˜230 g (6 weeks of age) were purchased and acclimated for one week. […] Anesthetized rats were injected with 0.8 mg of MIA in 50 μl saline solution into the intra-articular pocket at 1 hour after sample treatments. And then samples were administrated daily with gastric tube for 6 weeks. Bone histomorphometry was evaluated on both femur and tibia per knee joint by Micro CT scan using an Inveon™ unit (Siemens Healthcare USA, Inc., Pennsylvania, USA) at Korea Basic science institute, Ochang, Korea. BV/TV as an indicator of trabecular bone volume is the ratio of the trabecular bone volume to the total volume. BMD used as an indicator of osteoporosis and fracture risk. Therefore, we checked those markers whether GM has the efficacy on the osteoporosis. […] Anesthetized rats were injected with 0.8 mg of MIA in 50 μl saline solution into the intra-articular pocket at 1 hour after sample treatments. Samples were administrated daily with gastric tube for 6 weeks. Bone histomorphometry was evaluated on both femur and tibia per knee joint by Micro CT scan using an Inveon™ unit (Siemens Healthcare USA, Inc., Pennsylvania, USA) at Korea Basic science institute, Ochang, Korea. BV/TV as an indicator of trabecular bone volume is the ratio of the trabecular bone volume to the total volume. BMD used as an indicator of osteoporosis and fracture risk.

[1] = MIA 1 hour after sample treatment, daily 6 weeks, Diclofenac 10 mg/kg, GM 500 mg/kg, mean ± SD

## O=C(O)Cc1ccccc1Nc1c(Cl)cccc1Cl [Diclofenac]
[1]
  BMD (mg/cm3): 982.3 ± 19.44 mg/cm3
  BV/TV (%): 71.89 ± 5.43%
Concurrent MIA model
  BMD compared with vehicle group: significantly increased
  BV/TV compared with vehicle group: tendency to increase
